Laboratory results as given in patent US10894793B2, “Bicyclic pyridine, pyrazine, and pyrimidine derivatives as PI3K beta inhibitors” (Janssen Pharmaceutica NV, priority 2016, dated 2021).
pIC50, pKd: −log10 of the molar value.

Key:
MTOR_h = biological target: T1, MTOR_h (Homo sapiens, UniProt P42345); assay: Enzyme binding assay (KINOMEscan); details: DiscoveRx
T1 construct: purchased DiscoveRx Corporation
Description: (§1) Enzyme Binding Assays (KINOMEscan®)
(§2) Kinase enzyme binding affinities of compounds disclosed herein were determined using the KINOMEscan technology performed by DiscoveRx Corporation, San Diego, Calif., USA (www.kinomescan.com). Table A reports the obtained Kd values (nM), with the Kd being the inhibitor binding constant: […]

PIK3Cα_h = biological target: T2, PIK3Cα_h (Homo sapiens, UniProt P42336); assay: Enzyme binding assay (KINOMEscan); details: DiscoveRx
T2 construct: purchased DiscoveRx Corporation
Description: as §1, §2

PIK3Cβ_h = biological target: T3, PIK3Cβ_h (Homo sapiens, UniProt P42338); assay: Enzyme binding assay (KINOMEscan); details: DiscoveRx
T3 construct: purchased DiscoveRx Corporation
Description: as §1, §2

PIK3Cγ_h = biological target: T4, PIK3Cγ_h (Homo sapiens, UniProt P48736); assay: Enzyme binding assay (KINOMEscan); details: DiscoveRx
T4 construct: purchased DiscoveRx Corporation
Description: as §1, §2

PIK3Cδ_h = biological target: T5, PIK3Cδ_h (Homo sapiens, UniProt O00329); assay: Enzyme binding assay (KINOMEscan); details: DiscoveRx
T5 construct: purchased DiscoveRx Corporation
T5 sequence (O00329 1-1044): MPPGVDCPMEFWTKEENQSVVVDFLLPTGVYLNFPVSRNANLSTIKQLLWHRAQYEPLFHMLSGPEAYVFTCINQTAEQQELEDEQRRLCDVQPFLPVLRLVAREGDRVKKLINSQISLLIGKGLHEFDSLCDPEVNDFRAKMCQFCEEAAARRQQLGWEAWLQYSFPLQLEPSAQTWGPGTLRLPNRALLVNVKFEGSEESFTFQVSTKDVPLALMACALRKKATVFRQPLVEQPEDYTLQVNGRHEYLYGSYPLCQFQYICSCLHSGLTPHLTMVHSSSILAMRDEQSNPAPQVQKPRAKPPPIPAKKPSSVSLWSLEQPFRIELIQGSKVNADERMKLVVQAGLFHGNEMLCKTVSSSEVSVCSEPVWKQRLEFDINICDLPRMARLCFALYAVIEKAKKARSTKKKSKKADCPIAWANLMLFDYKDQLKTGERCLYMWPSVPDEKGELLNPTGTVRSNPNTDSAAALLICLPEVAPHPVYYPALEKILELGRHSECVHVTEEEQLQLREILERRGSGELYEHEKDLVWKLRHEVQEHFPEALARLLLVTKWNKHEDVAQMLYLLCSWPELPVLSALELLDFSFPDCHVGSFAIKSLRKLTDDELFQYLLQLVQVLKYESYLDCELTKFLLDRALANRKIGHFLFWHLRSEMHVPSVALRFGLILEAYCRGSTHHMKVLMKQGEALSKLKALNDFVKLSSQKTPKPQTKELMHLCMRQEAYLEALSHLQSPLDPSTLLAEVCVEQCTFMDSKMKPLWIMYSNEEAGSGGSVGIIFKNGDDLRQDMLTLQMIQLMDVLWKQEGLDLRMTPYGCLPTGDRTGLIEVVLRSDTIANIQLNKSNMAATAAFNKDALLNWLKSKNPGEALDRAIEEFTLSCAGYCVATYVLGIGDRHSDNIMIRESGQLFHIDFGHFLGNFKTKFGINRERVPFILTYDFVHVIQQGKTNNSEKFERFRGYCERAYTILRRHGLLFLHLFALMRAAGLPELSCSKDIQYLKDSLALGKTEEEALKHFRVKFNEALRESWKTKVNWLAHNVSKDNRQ
Description: as §1, §2

[1] = system: Akt phosphorylated at Ser473 in PC-3 cells; assay: Cellular assay: phosphorylation of Akt (Ser473) in PC-3 cells, MSD ELISA; type: cell-based; details: Homo sapiens, PC-3, 1 h, 60 min compound incubation, read-out: IC50 pAkt_S473
Description: (§3) Cellular activity of PI3Kβ inhibitors was determined by quantifying the phosphorylation of Akt in PC-3 cells. Akt phosphorylated at Ser473 and Thr308 were measured using an enzyme-linked immunosorbent assay (ELISA; Meso Scale Discovery (MSD), Gaithersburg, Md.) and specific primary antibodies from MSD.
(§4) On day 1, PC3 cells (ATCC #[…]) were seeded into PerkinElmer MW96 plates at 25.000 cells per well, in 75 μl complete culture medium (DMEM high glucose, AQmedia™, D0819, Sigma-Aldrich) containing 10% heat inactivated FCS and incubated at 37° C., […] during 24 hours. On day 2, compound or DMSO (0.3%) was added and cells were further incubated for 60 min at 37° C., 5% CO2 in a total volume of 100 μl of medium.
(§5) The phosphoprotein assay was executed according to vendor instructions in the Phospho-Akt (Ser473) Assay Whole Cell Lysate Kit (MSD #K15100D-3) and the Phospho-Akt (Thr308) Assay Whole Cell Lysate Kit (MSD #K151DYD-3) using the lysis, blocking and wash buffer provided.
(§6) Briefly, at the end of the cell treatment period, media were removed by aspiration and adherent cells were lysed in 50 μl ice-cold lysis buffer. MSD plates are supplied pre-coated with capture antibodies for Phospho-Akt (Ser473 and Thr308). After blocking, lysates from tissue culture plates were added and plates were washed. Then, a solution containing the detection antibody (anti-total Akt conjugated with an electrochemiluminescent compound-MSD Sulfo-tag label) was added. The signals were detected using an MSD SECTOR Imager 6000 and are proportional to the phospho-Akt titres.
(§7) Data were processed. The percentage of inhibition was plotted against the log concentration of test compounds, and the sigmoidal log concentration-effect curve of best fit was calculated by nonlinear regression analysis. From these concentration-response curves, the IC50 values were calculated. Five concentrations were used for curve fitting.

[2] = system: Akt phosphorylated at Thr308 in PC-3 cells; assay: Cellular assay: phosphorylation of Akt (Thr308) in PC-3 cells, MSD ELISA; type: cell-based; details: Homo sapiens, PC-3, 1 h, 60 min compound incubation, read-out: IC50 pAkt_Thr308
Description: as §3, §4, §5, §6, §7

T2 sequence (P42336 whole entry): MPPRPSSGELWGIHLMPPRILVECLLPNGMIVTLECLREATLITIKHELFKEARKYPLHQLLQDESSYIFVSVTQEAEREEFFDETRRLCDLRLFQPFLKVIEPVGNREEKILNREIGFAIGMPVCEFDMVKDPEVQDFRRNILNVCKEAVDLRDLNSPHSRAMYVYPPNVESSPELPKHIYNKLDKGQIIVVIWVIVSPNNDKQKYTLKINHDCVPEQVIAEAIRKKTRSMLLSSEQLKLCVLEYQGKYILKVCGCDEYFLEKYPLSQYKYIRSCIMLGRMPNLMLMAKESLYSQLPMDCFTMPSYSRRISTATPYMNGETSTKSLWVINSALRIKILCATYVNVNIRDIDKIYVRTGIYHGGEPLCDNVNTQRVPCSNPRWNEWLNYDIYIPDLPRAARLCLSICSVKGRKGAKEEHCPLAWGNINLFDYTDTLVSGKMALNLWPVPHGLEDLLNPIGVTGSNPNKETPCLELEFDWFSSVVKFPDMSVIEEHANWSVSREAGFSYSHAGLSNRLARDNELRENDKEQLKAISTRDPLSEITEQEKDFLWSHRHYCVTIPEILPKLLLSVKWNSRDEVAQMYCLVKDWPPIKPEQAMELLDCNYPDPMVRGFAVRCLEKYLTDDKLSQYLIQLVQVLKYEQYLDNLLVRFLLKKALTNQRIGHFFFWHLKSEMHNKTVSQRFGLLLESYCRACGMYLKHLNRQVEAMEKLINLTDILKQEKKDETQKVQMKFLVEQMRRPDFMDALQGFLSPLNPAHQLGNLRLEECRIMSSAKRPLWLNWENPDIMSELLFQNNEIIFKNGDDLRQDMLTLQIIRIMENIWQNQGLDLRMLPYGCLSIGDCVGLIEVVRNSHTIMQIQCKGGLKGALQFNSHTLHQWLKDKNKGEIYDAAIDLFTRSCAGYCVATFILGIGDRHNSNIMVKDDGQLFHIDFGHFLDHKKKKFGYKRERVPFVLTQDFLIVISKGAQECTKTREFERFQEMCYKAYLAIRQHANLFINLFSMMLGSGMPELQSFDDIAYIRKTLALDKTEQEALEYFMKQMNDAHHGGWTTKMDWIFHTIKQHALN
T4 sequence (P48736 whole entry): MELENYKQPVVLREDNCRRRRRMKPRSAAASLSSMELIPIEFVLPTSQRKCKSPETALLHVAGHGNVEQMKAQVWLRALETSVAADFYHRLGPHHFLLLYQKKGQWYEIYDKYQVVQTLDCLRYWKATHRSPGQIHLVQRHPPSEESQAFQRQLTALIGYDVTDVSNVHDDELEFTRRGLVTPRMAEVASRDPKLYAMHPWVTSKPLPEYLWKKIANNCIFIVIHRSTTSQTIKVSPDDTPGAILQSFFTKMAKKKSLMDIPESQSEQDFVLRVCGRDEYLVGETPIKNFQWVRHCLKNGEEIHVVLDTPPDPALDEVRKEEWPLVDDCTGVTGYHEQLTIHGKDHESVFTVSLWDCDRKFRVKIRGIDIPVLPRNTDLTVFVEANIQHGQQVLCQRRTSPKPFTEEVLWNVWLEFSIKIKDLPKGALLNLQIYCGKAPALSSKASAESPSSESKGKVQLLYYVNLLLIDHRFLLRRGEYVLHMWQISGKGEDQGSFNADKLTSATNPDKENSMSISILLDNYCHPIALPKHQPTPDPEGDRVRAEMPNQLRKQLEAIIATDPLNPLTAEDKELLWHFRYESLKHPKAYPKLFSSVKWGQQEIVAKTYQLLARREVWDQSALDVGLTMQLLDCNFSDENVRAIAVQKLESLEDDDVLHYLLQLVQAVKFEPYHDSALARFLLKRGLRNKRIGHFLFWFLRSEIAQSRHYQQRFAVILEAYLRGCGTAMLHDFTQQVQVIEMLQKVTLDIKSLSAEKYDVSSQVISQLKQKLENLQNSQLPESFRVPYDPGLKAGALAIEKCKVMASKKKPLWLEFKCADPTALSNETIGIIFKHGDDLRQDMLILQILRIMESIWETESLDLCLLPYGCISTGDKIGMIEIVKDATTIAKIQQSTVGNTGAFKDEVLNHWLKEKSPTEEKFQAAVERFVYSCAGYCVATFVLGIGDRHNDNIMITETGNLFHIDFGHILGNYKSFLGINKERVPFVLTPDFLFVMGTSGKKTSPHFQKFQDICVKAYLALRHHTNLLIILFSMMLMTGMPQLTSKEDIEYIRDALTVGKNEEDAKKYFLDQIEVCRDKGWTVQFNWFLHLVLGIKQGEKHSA
T3 sequence (P42338 whole entry): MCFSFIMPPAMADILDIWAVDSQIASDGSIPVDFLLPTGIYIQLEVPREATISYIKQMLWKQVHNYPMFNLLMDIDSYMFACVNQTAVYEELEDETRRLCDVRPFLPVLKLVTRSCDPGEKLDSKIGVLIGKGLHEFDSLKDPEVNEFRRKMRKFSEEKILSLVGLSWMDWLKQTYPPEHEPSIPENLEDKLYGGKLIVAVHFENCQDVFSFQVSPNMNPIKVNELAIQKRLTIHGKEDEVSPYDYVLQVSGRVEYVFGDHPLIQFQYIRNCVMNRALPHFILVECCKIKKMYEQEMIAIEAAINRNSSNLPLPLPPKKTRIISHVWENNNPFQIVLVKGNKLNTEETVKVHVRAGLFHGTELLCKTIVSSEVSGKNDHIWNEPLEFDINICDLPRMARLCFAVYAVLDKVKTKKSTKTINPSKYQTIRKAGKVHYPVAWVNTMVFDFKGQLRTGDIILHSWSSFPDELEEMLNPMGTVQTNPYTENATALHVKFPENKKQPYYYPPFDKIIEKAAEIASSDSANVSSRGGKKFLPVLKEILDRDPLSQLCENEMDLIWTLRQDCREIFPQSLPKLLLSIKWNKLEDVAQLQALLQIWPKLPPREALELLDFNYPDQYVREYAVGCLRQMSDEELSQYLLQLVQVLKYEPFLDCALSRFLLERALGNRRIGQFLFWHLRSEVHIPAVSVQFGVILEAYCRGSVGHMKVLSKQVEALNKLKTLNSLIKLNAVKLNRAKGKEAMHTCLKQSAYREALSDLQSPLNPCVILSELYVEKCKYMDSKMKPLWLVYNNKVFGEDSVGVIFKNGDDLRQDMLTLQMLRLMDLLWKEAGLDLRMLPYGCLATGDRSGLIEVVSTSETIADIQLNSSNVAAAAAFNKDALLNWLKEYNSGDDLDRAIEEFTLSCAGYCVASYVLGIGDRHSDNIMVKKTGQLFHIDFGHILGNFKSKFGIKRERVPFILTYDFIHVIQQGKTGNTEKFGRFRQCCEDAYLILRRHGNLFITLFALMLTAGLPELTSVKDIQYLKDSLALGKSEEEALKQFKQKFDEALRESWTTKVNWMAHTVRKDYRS

Row | pKd (MTOR_h) | pKd (PIK3Cα_h) | pKd (PIK3Cβ_h) | pKd (PIK3Cγ_h) | pKd (PIK3Cδ_h) | pIC50 [1] | pIC50 [2] | melting point | SMILES
1 | 6.03 | 6.54 | 8.80 | 5.97 | 7.16 | 7.85 | 8.15 | 240 °C | Cc1nc2c(-c3ccn[nH]3)nc(C3=CCOCC3)cn2c1Cc1cccc(C(F)(F)F)c1C [Compound 1]
2 | 4.91 | 5.74 | 8.33 | 5.20 | 6.05 | ~7.06 | ~7.19 | 257 °C | Cc1nc2c(C(N)=O)nc(C3=CCOCC3)cn2c1Cc1cccc(C(F)(F)F)c1C [Compound 5]
3 | 5.66 | 6.46 | 8.26 | 5.33 | 6.17 | 6.73 | 7.23 | 197 °C | Cc1nc2c(-c3c[nH]cn3)nc(C3=CCOCC3)cn2c1Cc1cccc(C(F)(F)F)c1C [Compound 6]
4 | < 4.52 | 4.69 | 6.90 | < 4.52 | 4.85 | < 6.29 | < 6.29 | 142 °C | Cc1c(Cc2c(CCO)nc3cnc(N4CCOCC4)cn23)cccc1C(F)(F)F [Compound 13]
5 | – | – | – | – | – | – | – | 135 °C | CCOC(=O)Cc1nc2cnc(N3CCOCC3)cn2c1Cc1cccc(C(F)(F)F)c1C [Compound 17]
6 | 4.89 | 6.52 | 9.52 | < 4.52 | 7.36 | 7.82 | ~8.00 | – | Cc1c(Cc2c(CN3CC4(C3)CS(=O)(=O)C4)nc3ccc(C4=CCOCC4)cn23)cccc1C(F)(F)F [Compound 40]
7 | 6.70 | 7.02 | 8.96 | 6.49 | 7.89 | 7.85 | 7.85 | – | Cc1c(Cc2c(CO)nc3c(-c4c[nH]cn4)cc(C4=CCOCC4)cn23)cccc1C(F)(F)F [Compound 41]
8 | 6.82 | 6.28 | 8.60 | 5.97 | 6.73 | 7.12 | ~7.70 | – | Cc1c(Cc2c(CO)nc3c(-c4ccn[nH]4)cc(C4=CCOCC4)cn23)cccc1C(F)(F)F [Compound 42]
9 | 5.78 | 6.23 | 9.05 | 5.72 | 7.46 | 7.28 | ~7.23 | – | Cc1c(Cc2c(CO)nc3c(-c4ncc[nH]4)cc(C4=CCOCC4)cn23)cccc1C(F)(F)F [Compound 43]
10 | 4.75 | 5.14 | 8.77 | 4.67 | 6.25 | 6.87 | 7.08 | – | Cc1nc2c(CO)cc(C3=CCOCC3)cn2c1Cc1cccc(C(F)(F)F)c1C [Compound 44]
11 | 4.73 | 4.84 | 7.04 | 4.80 | 5.46 | 6.84 | 6.78 | – | Cc1c(Cc2c(CO)nc3c(N)cc(N4CCOCC4)cn23)cccc1C(F)(F)F [Compound 45]
12 | 5.23 | 5.07 | 7.80 | 5.19 | 5.97 | 7.49 | 7.74 | 223 °C | Cc1c(Cc2c(CO)nc3c(N)cc(C4=CCOCC4)cn23)cccc1C(F)(F)F [Compound 46]

The next lines start with the compound.

Row | SMILES | pKd (MTOR_h) | pKd (PIK3Cα_h) | pKd (PIK3Cβ_h) | pKd (PIK3Cγ_h) | pKd (PIK3Cδ_h) | pIC50 [1] | pIC50 [2] | melting point
13 | Cc1c(Cc2c(CN3CCC(CO)CC3)nc3cnc(N4CCOCC4)cn23)cccc1C(F)(F)F [Compound 10] | < 4.52 | < 4.52 | 7.39 | < 4.52 | 5.37 | < 6.29 | < 6.29 | 198 °C
14 | Cc1c(Cc2c(CN3C[C@@H](C)N[C@@H](C)C3)nc3ncc(N4CCOCC4)cn23)cccc1C(F)(F)F [Compound 19] | < 4.52 | 4.78 | 8.38 | < 4.52 | 5.91 | 6.42 | 6.73 | 263 °C
15 | Cc1c(Cc2c(CN3CC4(C3)CS(=O)(=O)C4)nc3ncc(N4CCOCC4)cn23)cccc1C(F)(F)F [Compound 21] | < 4.52 | 5.83 | 9.40 | < 4.52 | 6.91 | 7.82 | 7.77 | 228 °C
16 | Cc1c(Cc2c(CN3CCS(=O)(=O)CC3)nc3ncc(N4CCOCC4)cn23)cccc1C(F)(F)F [Compound 22] | < 4.52 | 5.84 | 8.51 | < 4.52 | 6.20 | 6.67 | ~7.10 | 225 °C
17 | Cc1c(Cc2c(C(=O)N3C[C@@H](C)N[C@@H](C)C3)nc3ncc(N4CCOCC4)cn23)cccc1C(F)(F)F [Compound 23] | < 4.52 | < 4.52 | 8.06 | < 4.52 | 5.83 | 6.41 | ~6.66 | 130 °C
18 | Cc1c(Cl)cccc1Nc1c(CO)nc2ccc(N3CCOCC3)cn12 [Compound 39] | 5.40 | 6.33 | 9.30 | 4.95 | 6.85 | ~7.40 | 7.55 | –
19 | CN1CCC(c2c(F)cccc2Cc2c(CO)nc3ncc(N4CCOCC4)cn23)CC1 [Compound 48] | < 4.52 | 5.02 | 7.31 | 4.89 | 5.32 | < 6.29 | < 6.29 | 222 °C
20 | OCc1nc2ncc(N3CCOCC3)cn2c1Cc1cccc(F)c1C1CCNCC1 [Compound 49] | < 4.52 | 5.59 | 7.82 | 4.80 | 5.65 | < 6.29 | < 6.29 | 224 °C
